This is an account of results in US20090012053A1, “Use of LXR agonists for the treatment of osteoarthritis” (Wyeth, priority 2006, published 2009).

This test deals with aggrecanase. The test is described as follows: Western blot of aggrecanase-generated aggrecan neoepitopes (BC3, AGEG antibodies) in culture medium of human OA cartilage explants. The class given is cell-based. The method, then: FIG. 4A is a Western blot showing aggrecanase-generated aggrecan neoepitopes using BC-3 antibody, which recognizes the N-terminus on aggrecanase-generated aggrecan catabolites. Cartilage explants from two human donors with end stage OA (after joint replacement surgery) were used. Donor #259 is a patient, and donor #261 is a patient. Lanes 1, 5: vehicle. Lanes 2, 6: TO901317 (2 μM). Lanes 3, 7: IL-1β+oncostatin M (OSM) (10 ng/ml each). Lanes 4, 8: IL-1β+OSM+TO901317. FIG. 4B is a Western blot showing aggrecanase-generated aggrecan neoepitopes using AGEG antibody, which recognizes a different epitope on aggrecanase-generated aggrecan catabolites. Lanes 1, 5: vehicle. Lanes 2, 6: TO901317 (2 μM). Lanes 3, 7: IL-1β+OSM (10 ng/ml each). Lanes 4, 8: IL-1β+OSM+TO901317. Fresh cartilage from human OA donors was cut into pieces (˜10 mg/piece, ˜2×2×2 mm). The cartilage explants were randomized into 24 well plates (˜250 mg wet weight/well). Three wells of explants were included for each treatment group. The explants were cultured in 1 ml DMEM/F-12 with 10% FBS for 3 days, then the complete medium was replaced with serum-free medium. Twelve hours later, the medium was removed and fresh serum-free medium (1 ml) was added, followed by LXR agonist T0901317 treatment (2 μM). IL1β/Oncostatin M (10 ng/ml each) were added 8 hours later. The explants were then cultured in the presence or absence of LXR agonist T0901317 and IL1β/Oncostatin M for additional 20 hours. 180 μl of pooled culture medium from each treatment group was deglycosylated with chondroitinase ABC, keratanase, keratanase II in the presence of 50 mM EDTA at 37° C. for 3 hrs. The samples were then concentrated and separated in a 4-12% SDS-PAGE gel. Western analysis was performed using either mouse BC3 neoepitope antibody (1:1500), or rabbit anti-AGEG antibody (1:1000) as the primary antibody, and anti-mouse or anti-rabbit IgG antibody conjugated with […] (1:5000) as the secondary antibody. […] Treatment with T0901317 blocked the induction of BC3 and AEEG release by cytokines. In the experiment using donor #261, BC3- and AEGE-containing aggrecan fragments were released into the culture medium from untreated cartilage explants.
For orientation: A western blot detects proteins with antibodies after separation by electrophoresis.

SMILES strings stand for the structures.

In the case of `O=S(=O)(c1ccccc1)N(CC(F)(F)F)c1ccc(C(O)(C(F)(F)F)C(F)(F)F)cc1` [Formula T0901317, N-(2,2,2-trifluoroethyl)-N-{4-[2,2,2-trifluoro-1-hydroxy-1-(trifluoromethyl)ethyl]phenyl}benzene sulfonamide], for the setting “donor #259, 2 μM, IL1β/Oncostatin M 10 ng/ml each, FIG. 4A”, the “cytokine-induced release of BC3 containing aggrecan fragments into the culture medium” value was “blocked”. Further, the “cytokine-induced release of AGEG containing aggrecan fragments into the culture medium” value (donor #259, 2 μM, IL1β/Oncostatin M 10 ng/ml each, FIG. 4B) is “blocked”. Moreover, the “cytokine-induced release of AGEG-containing fragment from the explants” value (donor #261, 2 μM, IL1β/Oncostatin M 10 ng/ml each, FIG. 4B) was “it was blocked”. Further, the “amount of BC3-containing aggrecan fragments released into the culture medium without cytokines” value (donor #261, 2 μM, no cytokine, FIG. 4A) was “reduced the amount of these fragments”. Further, the “amount of AGEG-containing aggrecan fragments released into the culture medium without cytokines” value (donor #261, 2 μM, no cytokine, FIG. 4B) was “reduced the amount of these fragments”.
